Test results from patent publication US9738884B2, “Therapeutic agent for epithelial and endothelial injury” (NIHON UNIVERSITY, priority 2012, dated 2017).

Tested on: pulmonary edema model mice
Assay: LPS-induced pulmonary edema model mice, lung weight/body weight (Example 10, Experiment 1)
Type: in vivo
Conditions: 350 ng/body weight (g) intravenous, three hours after LPS 100 μg/body weight (g) intravenous
Excerpt: FIG. 10 is a graph showing the results of Experiment 1 in Example 10 of the present application, namely, the results regarding therapeutic effects on pulmonary edema (the effect of reducing the amount of lung water). In the graph, “Control” indicates normal mice, “LPS” indicates an “LPS (lipopolysaccharide)+control peptide (SEQ ID NO: 26)” administration group, and “LPS/Peptide” indicates an “LPS (lipopolysaccharide)+therapeutic peptide (SEQ ID NO: 25)” administration group. In addition, the numerical value of the vertical axis in the graph indicates the ratio of the weight (g) of lung to the body weight (g) of each mouse (lung weight (g)/body weight (g)).
The therapeutic effects of the peptide of the present invention on model mice with pulmonary edema, which were caused by septicemia, disseminated intravascular coagulation syndrome (DIC) or acute respiratory distress syndrome (ARDS), were confirmed. […]
A comparison experiment was carried out on a normal mouse group (healthy mice), an “LPS (lipopolysaccharide; endotoxin)+control peptide (SEQ ID NO: 26)” administration group, and an “LPS+therapeutic peptide (SEQ ID NO: 25)” administration group (7 mice/each group). […] Thereafter, the lung was removed from the mice in each group, and the weight of each lung was measured. The ratio of the weight (g) of the lung to the body weight (g) (lung weight (g)/body weight (g)) was calculated.

AETVFSNMDYENSTEAVFIQDDITKKKKKK [SEQ ID NO: 25]
reduction of the LPS-increased amount of lung weight: 72%
